Experimental data taken from ChEMBL document CHEMBL4219034, “Synthesis, antimicrobial activity, structure-activity relationship and cytotoxic studies of a new series of functionalized (Z)-3-(2-oxo-2-substituted ethylidene)-3,4-dihydro-2H-benzo[b][1,4]oxazin-2-ones” (Bioorg Med Chem Lett, 2017).
≈ marks a conversion by molar mass, not a printed value. Calls of active or inactive are those of the source. No cut-off for these calls is given here.

What was measured:
[1] = tested on: Streptomyces griseus; test: Antibacterial activity against Streptomyces griseus MTCC 4734 incubated for 24 hrs by serial dilution method; format: functional
[2] = tested on: Staphylococcus aureus; test: Antibacterial activity against Staphylococcus aureus MTCC 3381 incubated for 24 hrs by serial dilution method; format: functional
[3] = tested on: Bacillus subtilis; test: Antibacterial activity against Bacillus subtilis MTCC 10619 incubated for 24 hrs by serial dilution method; format: functional
[4] = tested on: Escherichia coli; test: Antibacterial activity against Escherichia coli MTCC 443 incubated for 24 hrs by serial dilution method; format: functional; conditions: MTCC 443, 24 h
[5] = tested on: Fusarium oxysporum; test: Antifungal activity against Fusarium oxysporum ATCC 62506 incubated for 24 hrs by serial dilution method; format: functional
[6] = tested on: Aspergillus niger; test: Antifungal activity against Aspergillus niger ATCC 9029 incubated for 24 hrs by serial dilution method; format: functional
[7] = tested on: Talaromyces funiculosus; test: Antifungal activity against Penicillium funiculosum ATCC 11797 incubated for 24 hrs by serial dilution method; format: functional
[8] = tested on: Trichoderma reesei; test: Antifungal activity against Trichoderma reesei ATCC 13631 incubated for 24 hrs by serial dilution method; format: functional
[9] = tested on: Streptomyces griseus; test: Antibacterial activity against Streptomyces griseus MTCC 4734 at 100 ug/ml incubated for 12 hrs by agar disc diffusion assay; format: functional; conditions: for zone of inhibition at 100 µg/mL: MTCC 4734, 12 h, read-out: IZ
[10] = tested on: Staphylococcus aureus; test: Antibacterial activity against Staphylococcus aureus MTCC 3381 at 100 ug/ml incubated for 12 hrs by agar disc diffusion assay; format: functional; conditions: for zone of inhibition at 100 µg/mL: MTCC 3381, 12 h, read-out: IZ
[11] = tested on: Bacillus subtilis; test: Antibacterial activity against Bacillus subtilis MTCC 10619 at 100 ug/ml incubated for 12 hrs by agar disc diffusion assay; format: functional; conditions: for zone of inhibition at 100 µg/mL: MTCC 10619, 12 h, read-out: IZ
[12] = tested on: Escherichia coli; test: Antibacterial activity against Escherichia coli MTCC 443 at 100 ug/ml incubated for 12 hrs by agar disc diffusion assay; format: functional; conditions: MTCC 443, 12 h, read-out: IZ
[13] = tested on: Fusarium oxysporum; test: Antifungal activity against Fusarium oxysporum ATCC 62506 at 100 ug/ml incubated for 72 hrs by agar disc diffusion assay; format: functional; conditions: for zone of inhibition at 100 µg/mL: ATCC 62506, 72 h, read-out: IZ
[14] = tested on: Aspergillus niger; test: Antifungal activity against Aspergillus niger ATCC 9029 at 100 ug/ml incubated for 72 hrs by agar disc diffusion assay; format: functional; conditions: for zone of inhibition at 100 µg/mL: ATCC 9029, 72 h, read-out: IZ
[15] = tested on: Talaromyces funiculosus; test: Antifungal activity against Penicillium funiculosum ATCC 11797 at 100 ug/ml incubated for 72 hrs by agar disc diffusion assay; format: functional; conditions: for zone of inhibition at 100 µg/mL: ATCC 11797, 72 h, read-out: IZ
[16] = tested on: Trichoderma reesei; test: Antifungal activity against Trichoderma reesei ATCC 13631 at 100 ug/ml incubated for 72 hrs by agar disc diffusion assay; format: functional; conditions: for zone of inhibition at 100 µg/mL: ATCC 13631, 72 h, read-out: IZ
[17] = Cytotoxicity against mouse NIH/3T3 cells assessed as cell viability at 25 ug/ml after 72 hrs by MTT assay relative to control; format: cell-based, NIH3T3; conditions: read-out: Activity
[18] = Cytotoxicity against mouse NIH/3T3 cells assessed as cell viability at 50 ug/ml after 72 hrs by MTT assay relative to control; format: cell-based, NIH3T3; conditions: read-out: Activity
[19] = Cytotoxicity against mouse NIH/3T3 cells assessed as cell viability at 100 ug/ml after 72 hrs by MTT assay relative to control; format: cell-based, NIH3T3; conditions: read-out: Activity
[20] = Cytotoxicity against mouse NIH/3T3 cells assessed as cell viability at 250 ug/ml after 72 hrs by MTT assay relative to control; format: cell-based, NIH3T3; conditions: read-out: Activity
[21] = tested on: Staphylococcus aureus; test: Potency index, ratio of ampicillin MIC to compound MIC for Staphylococcus aureus MTCC 3381 by serial dilution method; format: functional
[22] = tested on: Bacillus subtilis; test: Potency index, ratio of ampicillin MIC to compound MIC for Bacillus subtilis MTCC 10619 by serial dilution method; format: functional
[23] = tested on: Bacillus subtilis; test: Potency index, ratio of chloramphenicol MIC to compound MIC for Bacillus subtilis MTCC 10619 by serial dilution method; format: functional
[24] = tested on: Streptomyces griseus; test: Potency index, ratio of ampicillin MIC to compound MIC for Streptomyces griseus MTCC 4734 by serial dilution method; format: functional

| SMILES | MIC ([1]; MTCC 4734, 24 h) | MIC ([2]; MTCC 3381, 24 h) | MIC ([3]; MTCC 10619, 24 h) | MIC [4] | MIC ([5]; ATCC 62506, 24 h) | MIC ([6]; ATCC 9029, 24 h) | MIC ([7]; ATCC 11797, 24 h) | MIC [8] | zone of inhibition at 100 µg/mL [9] | zone of inhibition at 100 µg/mL [10] | zone of inhibition at 100 µg/mL [11] | zone of inhibition at 100 µg/mL [12] | zone of inhibition at 100 µg/mL [13] | zone of inhibition at 100 µg/mL [14] | zone of inhibition at 100 µg/mL [15] | viability at 72 h, 25 ug/ml [17] | viability at 72 h, 50 ug/ml [18] | viability at 72 h, 100 ug/ml [19] | viability at 72 h, 250 ug/ml [20] | inhibition zone (IZ) [16] | further results |
| --- | --- | --- | --- | --- | --- | --- | --- | --- | --- | --- | --- | --- | --- | --- | --- | --- | --- | --- | --- | --- | --- |
| O=C1Oc2ccccc2N/C1=C\C(=O)c1ccc(C2CCCCC2)cc1 | 50 µg/mL (≈ 144 µM) | – | 6.25 µg/mL (≈ 18 µM) | 100 µg/mL (≈ 288 µM) | – | 50 µg/mL (≈ 144 µM) | 50 µg/mL (≈ 144 µM) | inactive | 10 mm | – | 22 mm | 8 mm | – | 6 mm | 6 mm | – | – | – | – | inactive | MIC [2]: inactive; MIC [5]: inactive; inhibition zone (IZ) [10]: inactive; inhibition zone (IZ) [13]: inactive; Ratio [22]: 4 |
| O=C1Oc2ccc(Cl)cc2N/C1=C\C(=O)C1CC1 | – | 12.5 µg/mL (≈ 47.4 µM) | 100 µg/mL (≈ 379 µM) | 50 µg/mL (≈ 190 µM) | 12.5 µg/mL (≈ 47.4 µM) | – | – | inactive | – | 12 mm | 8 mm | 10 mm | 22 mm | – | – | 99% | 90.3% | 86.6% | 79.1% | inactive | MIC [1]: inactive; MIC [6]: inactive; MIC [7]: inactive; inhibition zone (IZ) [9]: inactive; inhibition zone (IZ) [14]: inactive; inhibition zone (IZ) [15]: inactive |
| O=C1Oc2ccc([N+](=O)[O-])cc2N/C1=C\C(=O)C1CC1 | 6.25 µg/mL (≈ 22.8 µM) | 100 µg/mL (≈ 365 µM) | – | 50 µg/mL (≈ 182 µM) | 12.5 µg/mL (≈ 45.6 µM) | 100 µg/mL (≈ 365 µM) | – | inactive | 22 mm | 6 mm | – | 14 mm | 22 mm | 6 mm | – | 93.2% | 86% | 79.5% | 73.7% | inactive | MIC [3]: inactive; MIC [7]: inactive; inhibition zone (IZ) [11]: inactive; inhibition zone (IZ) [15]: inactive |

Stronger by MIC [4], values ahead:

| MIC ([1]; MTCC 4734, 24 h) | MIC ([2]; MTCC 3381, 24 h) | MIC ([3]; MTCC 10619, 24 h) | MIC [4] | MIC ([5]; ATCC 62506, 24 h) | MIC ([6]; ATCC 9029, 24 h) | MIC ([7]; ATCC 11797, 24 h) | MIC [8] | SMILES | zone of inhibition at 100 µg/mL [9] | zone of inhibition at 100 µg/mL [10] | zone of inhibition at 100 µg/mL [11] | zone of inhibition at 100 µg/mL [12] | zone of inhibition at 100 µg/mL [13] | zone of inhibition at 100 µg/mL [14] | zone of inhibition at 100 µg/mL [15] | viability at 72 h, 25 ug/ml [17] | viability at 72 h, 50 ug/ml [18] | viability at 72 h, 100 ug/ml [19] | viability at 72 h, 250 ug/ml [20] | inhibition zone (IZ) [16] | further results |
| --- | --- | --- | --- | --- | --- | --- | --- | --- | --- | --- | --- | --- | --- | --- | --- | --- | --- | --- | --- | --- | --- |
| 12.5 µg/mL (≈ 31.9 µM) | 6.25 µg/mL (≈ 15.9 µM) | 12.5 µg/mL (≈ 31.9 µM) | 25 µg/mL (≈ 63.7 µM) | 50 µg/mL (≈ 127 µM) | 25 µg/mL (≈ 63.7 µM) | 25 µg/mL (≈ 63.7 µM) | – | O=C1Oc2ccc([N+](=O)[O-])cc2N/C1=C\C(=O)c1ccc(C2CCCCC2)cc1 | 22 mm | 20 mm | 16 mm | 18 mm | 10 mm | 18 mm | 16 mm | 98.2% | 89.1% | 82.5% | 79.2% | – | MIC ([8]; ATCC 13631, 24 h): 25 µg/mL (≈ 63.7 µM); zone of inhibition at 100 µg/mL [16]: 20 mm; Ratio [21]: 2 |
| 50 µg/mL (≈ 127 µM) | 12.5 µg/mL (≈ 31.9 µM) | 3.12 µg/mL (≈ 7.95 µM) | 25 µg/mL (≈ 63.7 µM) | 25 µg/mL (≈ 63.7 µM) | 100 µg/mL (≈ 255 µM) | 100 µg/mL (≈ 255 µM) | – | O=C1Oc2cc([N+](=O)[O-])ccc2N/C1=C\C(=O)c1ccc(C2CCCCC2)cc1 | 10 mm | 14 mm | 24 mm | 18 mm | 20 mm | 8 mm | 14 mm | 97.8% | 89% | 84.6% | 78.3% | – | MIC ([8]; ATCC 13631, 24 h): 25 µg/mL (≈ 63.7 µM); zone of inhibition at 100 µg/mL [16]: 12 mm; Ratio [22]: 8; Ratio [23]: 2 |
| 3.12 µg/mL (≈ 11.4 µM) | 12.5 µg/mL (≈ 45.6 µM) | 3.12 µg/mL (≈ 11.4 µM) | 25 µg/mL (≈ 91.2 µM) | 50 µg/mL (≈ 182 µM) | 100 µg/mL (≈ 365 µM) | 100 µg/mL (≈ 365 µM) | inactive | O=C1Oc2cc([N+](=O)[O-])ccc2N/C1=C\C(=O)C1CC1 | 28 mm | 10 mm | 24 mm | 18 mm | 10 mm | 8 mm | 6 mm | 94.3% | 90.9% | 83.3% | 76.3% | inactive | Ratio [24]: 4; Ratio [22]: 8; Ratio [23]: 2 |
| 12.5 µg/mL (≈ 32.4 µM) | 6.25 µg/mL (≈ 16.2 µM) | 25 µg/mL (≈ 64.7 µM) | 25 µg/mL (≈ 64.7 µM) | 50 µg/mL (≈ 129 µM) | – | 25 µg/mL (≈ 64.7 µM) | – | O=C1Oc2ccc([N+](=O)[O-])cc2N/C1=C\C(=O)c1ccc(-c2ccccc2)cc1 | 20 mm | 20 mm | 18 mm | 16 mm | 14 mm | – | 16 mm | 91% | 83.5% | 77.6% | 77.1% | – | MIC [6]: inactive; MIC ([8]; ATCC 13631, 24 h): 100 µg/mL (≈ 259 µM); inhibition zone (IZ) [14]: inactive; zone of inhibition at 100 µg/mL [16]: 10 mm; Ratio [21]: 2 |
